Test results reported in patent US10752612B2, “PLK4 inhibitors” (LUDWIG INSTITUTE FOR CANCER RESEARCH LTD, priority 2015, dated 2020).

Molecular target: T1, human Plk4 kinase domain (aa 2-275) (Homo sapiens, UniProt O00444)
T1 construct: purified 6×His-tagged human Plk4 kinase domain (aa 2-275); 6xHis; made in house; host or cells: E. coli
T1 sequence (O00444 2-275): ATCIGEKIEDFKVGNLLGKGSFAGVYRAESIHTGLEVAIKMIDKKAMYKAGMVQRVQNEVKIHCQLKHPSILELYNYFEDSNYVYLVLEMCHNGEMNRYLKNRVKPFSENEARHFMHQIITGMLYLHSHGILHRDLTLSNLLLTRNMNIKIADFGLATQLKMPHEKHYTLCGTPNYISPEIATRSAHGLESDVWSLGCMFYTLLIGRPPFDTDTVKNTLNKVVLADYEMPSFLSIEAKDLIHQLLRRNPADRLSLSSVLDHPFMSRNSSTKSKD
Experiment: Plk4 kinase assay (ADP-Glo)
Format: biochemical
Conditions: Table 1
Procedure: Kinase assays. […] The Plk4 concentration in the final reaction was 2.5-10 nM with a final pH of 8.0. […] Reactions were allowed to proceed for 4-16 hours at 25° C. Detection was performed using ADP-Glo reagent (Promega), following manufacturer's instructions. Luminescence was measured on an Infinite M1000 plate reader (Tecan). Data were fit using Prism (GraphPad) and Kis were calculated from IC50 data using the Cheng and Prusoff equation (37) or the Copeland formalism for tight-binding inhibitors (38).

| SMILES | IC50 |
| --- | --- |
| CCc1cc(Nc2nc(SC)nc(N3CCN(CCN(C)C)CC3)c2C)n[nH]1 | < 1 µM |
| COc1c(Nc2cc(C)[nH]n2)nc(Sc2ccc(S(=O)(=O)Cc3ccccc3)cc2)nc1N1CCC(CCN(C)C)CC1 | < 1 µM |
| COc1c(Nc2cc(C)[nH]n2)nc(Sc2ccc(S(=O)(=O)C(F)(F)F)cc2)nc1N1CCN(CCN(C)C)CC1 | < 1 µM |
| CC(=O)Nc1ccc(Sc2nc(Nc3cc(C)[nH]n3)c(C)c(N3CCN(C)CC3)n2)cc1 | < 1 µM |
| COC(=O)c1ccc(Sc2nc(Nc3cc(C)[nH]n3)c(OC)c(N3CCN(CCN(C)C)CC3)n2)cc1 | < 1 µM |
| COc1c(Nc2cc(CC(=O)O)[nH]n2)nc(SC)nc1N1CCN(CCN(C)C)CC1 | > 1 µM |
| COc1c(Nc2cc(C)[nH]n2)nc(Sc2ccc(NC(C)=O)cc2)nc1N1CCN(CCN(C)c2ccccc2)CC1 | < 1 µM |
| COc1c(Nc2cc(C)[nH]n2)nc(Sc2cccc(NC(C)=O)c2)nc1N1CCN(CCN(C)C)CC1 | < 1 µM |
| COC(=O)c1cccc(CS(=O)(=O)c2ccc(Sc3nc(Nc4cc(C)[nH]n4)c(OC)c(N4CCN(CCN(C)C)CC4)n3)cc2)c1 | < 1 µM |
| COc1c(Nc2cc(C)[nH]n2)nc(Sc2ccc(NC(C)=O)cc2)nc1N1CCCCC1C (stereo not drawn) | 0.1 to 1 µM |
| COc1c(Nc2cc(C)[nH]n2)nc(Sc2ccc([N+](=O)[O-])cc2)nc1N1CCN(CCN(C)C)CC1 | < 1 µM |
| CC(=O)Nc1ccc(Sc2nc(Nc3cc(C)[nH]n3)c(C)c(N3CCOC[C@H]3C)n2)cc1 | < 1 µM |
| CC(=O)Nc1ccc(Sc2nc(Nc3cc(C)[nH]n3)c(C)c(C3CCN(CCN(C)C)CC3)n2)cc1 | < 1 µM |
| CC(=O)Nc1ccc(Sc2nc(Nc3cc(C)[nH]n3)cc(N3CCN(CCN(C)C)CC3C)n2)cc1 (stereo not drawn) | < 1 µM |
| CC(=O)Nc1ccc(Sc2nc(Nc3cc(C)[nH]n3)c(C)c(N(CCO)C(C)C)n2)cc1 | < 1 µM |
| Cc1cc(Nc2nc(Sc3ccc(NC(=O)C4CCCC4)cc3)nc(N3CCOCC3)c2C)n[nH]1 | < 1 µM |
| COc1c(Nc2cc(C)[nH]n2)nc(Sc2ccc(S(=O)(=O)C(F)c3cccc([N+](=O)[O-])c3F)cc2F)nc1N1CCC(CCN(C)C)CC1 (stereo not drawn) | < 1 µM |
| Cc1cc(Nc2nc(Sc3ccc([N+](=O)[O-])cc3)nc3c2CCC32CCN(C(=O)C(C)(C)C)CC2)n[nH]1 | < 1 µM |
| COc1c(Nc2cc(C)[nH]n2)nc(Sc2ccc(S(=O)(=O)Cc3cccc([N+](=O)[O-])c3)cc2)nc1N1CCOC[C@H]1C | < 1 µM |
| COc1c(Nc2cc(C)[nH]n2)nc(Sc2ccc(S(=O)(=O)C3(c4cccc([N+](=O)[O-])c4F)CC3)cc2F)nc1N1CCC(C(N)=O)CC1 | < 1 µM |
| COc1c(Nc2cc(C)[nH]n2)nc(Sc2ccc(S(=O)(=O)Cc3cccc([N+](=O)[O-])c3F)cc2)nc1N1CCOCC1 | < 1 µM |
| COc1c(Nc2cc(C)[nH]n2)nc(Sc2ccc(NC(C)=O)cc2)nc1N1CCN(C(=O)CN(C)C)CC1 | < 1 µM |
| COc1c(Nc2cc(C)[nH]n2)nc(SC)nc1N1CCN(CCN(C)C)CC1 | 0.1 to 1 µM |
| COc1c(Nc2cc(C)[nH]n2)nc(Sc2ccc(S(=O)(=O)Cc3cccc(O)c3)cc2)nc1N1CCN(CCN(C)C)CC1 | < 1 µM |
| Cc1cc(Nc2nc(Sc3ccc(NC(=O)C4CC4)cc3)nc(NC(C)C)c2C)n[nH]1 | < 1 µM |

| SMILES | IC50 |
| --- | --- |
| CCN(C)CCN1CCN(c2nc(Sc3ccc(NC(C)=O)cc3)nc(Nc3cc(C)[nH]n3)c2OC)CC1 | < 1 µM |
| COc1c(Nc2cc(C)[nH]n2)nc(Sc2ccc(S(=O)(=O)Cc3ccc(Cl)cc3)cc2)nc1N1CCN(CCN(C)C)CC1 | < 1 µM |
| CCOc1c(Nc2cc(C)[nH]n2)nc(Sc2ccc(S(=O)(=O)Cc3ccccc3)cc2)nc1N1CCN(CCN2C3CCCC2CC3)CC1 | < 1 µM |
| CCOc1c(NCCOC)nc(Sc2ccc(NC(=O)C3CC3)cc2)nc1Nc1cc(C)[nH]n1 | 0.1 to 1 µM |
| CCS(=O)(=O)c1ccc(Sc2nc(Nc3cc(C)[nH]n3)c(OC)c(N3CCOC[C@@H]3C)n2)c(Cl)c1 | < 1 µM |
| COCCNc1nc(Sc2ccc(NC(=O)C3CC3)cc2)nc(Nc2cc(C)[nH]n2)c1C | < 1 µM |
| COc1c(Nc2cc(C)[nH]n2)nc(Sc2ccc(NC(C)=O)cc2)nc1N1CCN(CCN2CCOCC2)CC1 | < 1 µM |
| COc1c(Nc2cc(C)[nH]n2)nc(Sc2ccc(NC(=O)C3CCCC3)cc2)nc1N1CCN(CCN(C)C)CC1 | < 1 µM |
| CCS(=O)(=O)c1ccc(Sc2nc(C)c(OC)c(Nc3cc(C)[nH]n3)n2)cc1 | < 1 µM |
| CC(=O)N1CCN(c2nc(Sc3ccc(NC(=O)C4CCCC4)cc3)nc(Nc3cc(C)[nH]n3)c2C)CC1 | < 1 µM |
| CCc1c(Nc2cc(C)[nH]n2)nc(Sc2ccc(NC(=O)C3CC3)cc2)nc1N1CCN(C)CC1 | > 1 µM |
| Cc1ccc(Sc2nc(Nc3cc(C)[nH]n3)c(C)c(N3CCOCC3)n2)cc1 | < 1 µM |
| CC(=O)Nc1ccc(Sc2nc(Nc3cc(C)[nH]n3)c(C)c(N3CCC(C)(O)CC3)n2)cc1 | < 1 µM |
| CCOc1c(Nc2cc(C)[nH]n2)nc(Sc2ccc(NC(=O)C3CCCC3)cc2)nc1N1CCN(C(C)=O)CC1 | 0.1 to 1 µM |
| CCN(CC)c1nc(Sc2ccc(NC(=O)C3CC3)cc2)nc(Nc2cc(C)[nH]n2)c1C | < 1 µM |
| COc1c(Nc2cc(C)[nH]n2)nc(Sc2ccc(C(=O)Oc3cccc([N+](=O)[O-])c3F)cc2F)nc1N1CCOCC1 | < 1 µM |
| COc1c(Nc2cc(C)[nH]n2)nc(Sc2ccc(S(=O)(=O)Cc3ccccc3)cc2)nc1N1CCN(CCN2C3CCCC2CC3)CC1 | < 1 µM |
| CCOc1c(Nc2cc(C)[nH]n2)nc(Sc2ccc(NC(C)=O)cc2)nc1N1CCNCC1 | 0.1 to 1 µM |
| COC(=O)c1cccc(CS(=O)(=O)c2ccc(Sc3nc(Nc4cc(C)[nH]n4)c(OC)c(N4CCOCC4)n3)c(F)c2)c1F | < 1 µM |
| CC(=O)Nc1ccc(Sc2nc(Nc3cc(C)[nH]n3)c(C)c(N3CCOCC3)n2)cc1 | < 1 µM |
| COc1c(Nc2cc(C)[nH]n2)nc(Sc2ccc(S(=O)(=O)C(C)(C)c3cccnc3)cc2)nc1N1CCN(CCN(C)C)CC1 | < 1 µM |
| COc1c(Nc2cc(C)[nH]n2)nc(Sc2ccc(S(=O)(=O)Cc3ccccc3)cc2)nc1N1CCO[C@@H](C)C1 | < 1 µM |
| CCNc1nc(Sc2ccc(NC(=O)C3CC3)cc2)nc(Nc2cc(C)[nH]n2)c1OC | < 1 µM |
| COc1c(Nc2cc(C)[nH]n2)nc(Sc2ccc(S(=O)(=O)Cc3ccc(F)cc3F)cc2)nc1N1CCN(CCN(C)C)CC1 | < 1 µM |
| CCN1CCN(c2nc(Sc3ccc(NC(C)=O)cc3)nc(Nc3cc(C)[nH]n3)c2OC)CC1 | < 1 µM |

| SMILES | IC50 |
| --- | --- |
| CC(=O)Nc1ccc(Sc2nc(Nc3cc(C)[nH]n3)c(C)c(N(C)C(C)C)n2)cc1 | < 1 µM |
| COc1c(Nc2cc(C)[nH]n2)nc(Sc2ccc(NC(=O)C3CC3)cc2)nc1N(C)C(C)C | 0.1 to 1 µM |
| COc1c(Nc2cc(C)[nH]n2)nc(Sc2ccc(S(=O)(=O)Cc3cccc([N+](=O)[O-])c3)cc2)nc1N1CCN(CCN(C)C)CC1 | < 1 µM |
| COc1c(Nc2cc(C)[nH]n2)nc(Sc2ccc(NC(C)=O)cc2)nc1N1CCCC1 | < 1 µM |
| CCS(=O)(=O)c1ccc(Sc2nc(Nc3cc(C)[nH]n3)c(OC)c(N3CCOCC3)n2)cc1 | < 1 µM |
| COc1c(Nc2cc(C)[nH]n2)nc(Sc2ccc(S(=O)(=O)Cc3cc(F)cc([N+](=O)[O-])c3)cc2)nc1N1CCN(CCN(C)C)CC1 | < 1 µM |
| COc1c(Nc2cc(C)[nH]n2)nc(Sc2ccc(S(=O)(=O)Cc3cccc([N+](=O)[O-])c3F)cc2F)nc1N1CCOC[C@@H]1CO | < 1 µM |
| COc1c(Nc2cc(C)[nH]n2)nc(Sc2ccc([S+](C)[O-])cc2)nc1N1CCN(CCN(C)C)CC1 (stereo not drawn) | < 1 µM |
| CC(=O)Nc1ccc(Sc2nc(Nc3cc(C)[nH]n3)c(C)c(N3CCC(O)CC3)n2)cc1 | < 1 µM |
| CNC1CCN(c2nc(Sc3ccc(NC(C)=O)cc3)nc(Nc3cc(C)[nH]n3)c2C)CC1 | < 1 µM |
| COc1c(Nc2ncc(C)s2)nc(Sc2ccc(S(C)(=O)=O)cc2)nc1N1CCN(CCN(C)C)CC1 | < 1 µM |
| COCCN(C)c1nc(Sc2ccc(NC(C)=O)cc2)nc(Nc2cc(C)[nH]n2)c1C | < 1 µM |
| CCOc1c(Nc2cc(C)[nH]n2)nc(Sc2ccc(S(=O)(=O)CC)cc2)nc1N1CCN(CCN(C)C)CC1 | < 1 µM |
| COc1c(Nc2cc(C)[nH]n2)nc(Sc2ccc(NC(C)=O)cc2)nc1N1CCC(F)CC1 | < 1 µM |
| COc1c(Nc2cc(C)[nH]n2)nc(Sc2ccc(S(=O)(=O)Cc3ccccc3)cc2)nc1N(C)C | < 1 µM |
| COc1c(Nc2cc(C)[nH]n2)nc(Sc2ccc(NC(C)=O)cc2)nc1N1CCCCCC1 | 0.1 to 1 µM |
| CCOc1c(Nc2cc(C)[nH]n2)nc(Sc2ccc(NC(=O)C3CC3)cc2)nc1N(C)C [drawing 129] | 0.1 to 1 µM |
| CCSc1c(Nc2cc(C)[nH]n2)nc(Sc2ccc(NC(=O)C3CC3)cc2)nc1N1CCN(C)CC1 | 0.1 to 1 µM |
| COc1c(Nc2cc(C)[nH]n2)nc(Sc2ccc(S(=O)(=O)Cc3ccccc3)cc2)nc1N1CCN(CCN2CCCCC2)CC1 | < 1 µM |
| COc1c(Nc2cc(C)[nH]n2)nc(Sc2ccc(NC(C)=O)cc2)nc1N1CC2CCC(C1)N2CCN(C)C | < 1 µM |
| COc1c(Nc2cc(C)[nH]n2)nc(Sc2ccc(S(=O)(=O)c3ccccc3)cc2)nc1N1CCN(CCN(C)C)CC1 | < 1 µM |
| COc1c(Nc2cc(C)[nH]n2)nc(Sc2ccc(S(=O)(=O)Cc3ccccc3)cc2)nc1N1CCN(CCN2C(C)CCCC2C)CC1 (stereo not drawn) | < 1 µM |
| COc1c(Nc2cc(C)[nH]n2)nc(Sc2ccc(-c3cc4cccc([N+](=O)[O-])c4o3)cc2F)nc1N1CCOCC1 | < 1 µM |
| COc1c(Nc2cc(C)[nH]n2)nc(Sc2ccc(C#Cc3cccc([N+](=O)[O-])c3F)cc2F)nc1N1CCOCC1 | < 1 µM |
| COCC(=O)N1CCN(c2nc(Sc3ccc(NC(C)=O)cc3)nc(Nc3cc(C)[nH]n3)c2OC)CC1 | < 1 µM |
